Laboratory results taken from PMC11655904, “[^89Zr]Zr-DFO-TOC: a novel radiopharmaceutical for PET imaging of somatostatin receptor positive neuroendocrine tumors” (EJNMMI Radiopharmacy and Chemistry, 2024).
Values joined by “and” are separate entries in the source; they are usually repeats but may differ in a detail not shown here. Identical values can stand only once. “Also recorded” adds a separate entry of the source.

Tests used:
[1] = ref Brereton et al. [2015]; Lamberts et al. [1996]; cited from earlier work
Text: (§1) Significant progress has been made in recent years towards understanding the underlying biology and molecular pathways involved with NETs, particularly the role of somatostatin receptors (SSTRs) and their downstream pathways. SSTRs (SSTR1, 2 A/2B, 3, 4, and 5) belong to a family of G protein-coupled receptors with seven transmembrane-spanning proteins that bind the cyclic peptide somatostatin (SST) (Theodoropoulou and Stalla [2013]). SST regulates cell growth and inhibits hormone secretion in the endocrine and exocrine systems (Brereton et al. [2015]; Ampofo et al. [2020]).

[2] = system: SSTR2; parameters: method as in Buscail et al. [1994]; details: ref Buscail et al. [1994]; cited from earlier work
Text: as §1, with “[2020]). Prior research has ...” for “[2020]).”

[3] = Benchtop stability of the radiotracer (radio-HPLC and iTLC); type: physicochemical; details: mean ± standard deviation
Protocol: To neutralize [^89Zr]Zr-oxalate, an equal volume of [^89Zr]Zr-oxalate and 0.5 M Thermo Scientific HEPES (concentration 99%) buffer were mixed. The pH of the sample was then adjusted using 5.0 M NaOH. For all radiolabeling experiments, 100 µCi (3.7 MBq) of ^89Zr (pH ~ 7.4) was incubated with varying molar quantities of DFO-TOC and 1.0 M HEPES buffer in a final incubation volume of 200 µL. The reaction was incubated on a thermomixer at 37 °C and 800 rpm for 30 min. The molar activity was determined by radiolabeling 1 nmol of DFO-TOC with varying activities of ^89Zr up to 1500 µCi (55.5 MBq) and 1.0 M HEPES buffer in a final incubation volume of 200 µL. Samples were incubated using the same conditions as the radiochemical yield assays. Samples were analyzed using an Agilent (Santa Clara, CA) 1260 Infinity II high-performance liquid chromatography (HPLC) instrument with a LabLogic (Chantilly, VA) Flow-RAM radio-HPLC detector. Radiochemical yields were determined via radio-HPLC using a reversed-phase C18 selectivity column (5 μm particle size, 150 mm length, and 4.6 mm diameter).
The samples were assessed for benchtop stability and stability in mouse serum only if a radiochemical yield of 95% or greater was achieved. Benchtop stability was assessed at time points of 30 min, 1 h, 1 day, 2 days, 3 days, 6 days, and 9 days using an Eckert & Ziegler (Valencia, CA) AR-2000 instant Thin Layer Chromatography (iTLC) and radio-HPLC. Diethylenetriamine pentaacetic acid was used as the mobile phase for iTLC, while radio-HPLC used the gradient described previously. Stability in mouse serum was assessed by adding 100 µL of a 200 [drawing 3] […] No further sample purification was conducted before injection on the radio-HPLC. All samples remained on a thermomixer at 37 °C and 800 rpm, and aliquots were removed for analysis by using iTLC and radio-HPLC, after 1 h, 1 day, 2 days, 3 days, 5 days, 6 days, and 9 days.

[4] = system: AR42J cells (SSTR2 high expression); assay: Receptor binding and competitive receptor blocking assay, AR42J cells; type: cell-based
Protocol: (§2) Cells were seeded in Fisherbrand™ 12-well surface-treated culture plates with 1 million cells per well for each cell line and were allowed to adhere overnight under normal cell culture conditions. Samples were not purified to remove excess DFO-TOC. For receptor binding and blocking experiments, each well was incubated with [^89Zr]Zr-DFO-TOC (0.025 nmol DFO-TOC per well, 1 µCi (0.037 MBq) of [^89Zr]) in 1mL of cell media. For receptor blocking experiments,
(§3) 2.5 nmol unlabeled DFO-TOC was added to each well, in addition to [^89Zr]Zr-DFO-TOC. Culture plates were incubated with the tracer for 1 h, 3 h, 1 day, 3 days, 5 days, and 6 days. At each timepoint, the media was removed and the cells were washed with PBS twice. Cells were detached using 1 mL of 1 M NaOH and collected in a microcentrifuge tube for analysis using a Revvity (Waltham, MA) Wizard2 Gamma Counter. BCA assays were used to estimate protein concentrations per the manufacturer’s instructions.
(§4) All data was analyzed using GraphPad Prism (San Diego, CA) and is presented as a mean ± standard deviation. Statistical analysis was completed using a paired nonparametric t-test (α = 0.05) to compare cell total binding and cell blocking groups.

[5] = system: PC-3 cells (SSTR2 moderate expression); assay: Receptor binding and competitive receptor blocking assay, PC-3 cells; type: cell-based; details: 2.5 nmol unlabeled DFO-TOC (100x excess) as blocking agent; at 120 h; p = 0.0001; paired nonparametric t-test
Protocol: as §2, §3, §4

[6] = system: PANC-1 cells (SSTR2 minimal expression); assay: Receptor binding and competitive receptor blocking assay, PANC-1 cells; type: cell-based
Protocol: as §2, §3, §4

[7] = system: AR42J cells; assay: Internalization assay, AR42J cells; type: cell-based; details: 0.025 nmol DFO-TOC, 1 µCi per well; time points 30 min, 1 h, 3 h; trypsin and sodium citrate pH 2 strip
Protocol: (§5) Cells were seeded in Fisherbrand™ 12-well surface-treated culture plates with 1 million cells per well for each cell line and were allowed to grow overnight under cell culture conditions. For internalization experiments, each well received 0.025 nmol DFO-TOC radiolabeled with 1 µCi (0.037 MBq) of [^89Zr]Zr-DFO-TOC in 1 mL of cell media. Plates were incubated with [^89Zr]Zr-DFO-TOC for 30 min, 1 h, and 3 h. Cells were detached from the wells using 800 µL of 0.05% Gibco trypsin incubated for 5 min. Cells were sedimented using a benchtop centrifuge at 7000 g for 5 min. The supernatant was removed, and the cells were resuspended in 200 µL of 0.1 M Supelco sodium citrate (pH 2) for 5 min. The cells were sedimented using a benchtop microcentrifuge and the supernatant was added to the trypsin. The supernatant and cell pellet activities were determined using the Wizard2 Gamma Counter.

[8] = system: PC-3 cells; assay: Internalization assay, PC-3 cells; type: cell-based
Protocol: as §5

[9] = system: PANC-1 cells; assay: Internalization assay, PANC-1 cells; type: cell-based; details: 0.025 nmol DFO-TOC, 1 µCi per well; time points 30 min, 1 h, 3 h; trypsin and sodium citrate pH 2 strip
Protocol: as §5

[10] = 100 µL of tracer sample (200 µCi, 7.4 MBq) in 400 µL prefiltered mouse serum, 37 °C, 800 rpm, mean ± standard deviation
Protocol: To neutralize [^89Zr]Zr-oxalate, an equal volume of [^89Zr]Zr-oxalate and 0.5 M Thermo Scientific HEPES (concentration 99%) buffer were mixed. The pH of the sample was then adjusted using 5.0 M NaOH. For all radiolabeling experiments, 100 µCi (3.7 MBq) of ^89Zr (pH ~ 7.4) was incubated with varying molar quantities of DFO-TOC and 1.0 M HEPES buffer in a final incubation volume of 200 µL. The reaction was incubated on a thermomixer at 37 °C and 800 rpm for 30 min. The molar activity was determined by radiolabeling 1 nmol of DFO-TOC with varying activities of ^89Zr up to 1500 µCi (55.5 MBq) and 1.0 M HEPES buffer in a final incubation volume of 200 µL. […] Samples were analyzed using an Agilent (Santa Clara, CA) 1260 Infinity II high-performance liquid chromatography (HPLC) instrument with a LabLogic (Chantilly, VA) Flow-RAM radio-HPLC detector. Radiochemical yields were determined via radio-HPLC using a reversed-phase C18 selectivity column (5 μm particle size, 150 mm length, and 4.6 mm diameter).
The samples were assessed for benchtop stability and stability in mouse serum only if a radiochemical yield of 95% or greater was achieved. Benchtop stability was assessed at time points of 30 min, 1 h, 1 day, 2 days, 3 days, 6 days, and 9 days using an Eckert & Ziegler (Valencia, CA) AR-2000 instant Thin Layer Chromatography (iTLC) and radio-HPLC. […]

[11] = system: SSTR2, AR42J; details: ref Vaidyanathan et al. [2003], Hofland et al. [1999]; cited from earlier work

somatostatin [SST]
bioactive half-life [1]: < 1 min

octreotide
receptor affinity for SSTR2 [2]: high receptor affinity

CC(=O)N(O)CCCCCNC(=O)CCC(=O)N(O)CCCCCNC(=O)CCC(=O)N(O)CCCCCNC(=S)Nc1ccc(NC(=S)NCCCCCC(=O)N[C@H](Cc2ccccc2)C(=O)N[C@H]2CSSC[C@@H](C(=O)N[C@H](CO)[C@@H](C)O)NC(=O)[C@H]([C@@H](C)O)NC(=O)[C@H](CCCCN)NC(=O)[C@@H](Cc3c[nH]c4ccccc34)NC(=O)[C@H](Cc3ccc(O)cc3)NC2=O)cc1 [[^89Zr]Zr-DFO-TOC, metal not drawn]
radiochemical yield on the benchtop after 9 days, iTLC ([3]; iTLC, diethylenetriamine pentaacetic acid mobile phase): 97 ± 4%
radiochemical yield on the benchtop after 9 days, radio-HPLC ([3]; radio-HPLC, C18, 0.1% TFA water/acetonitrile gradient): 89.6% and 90 ± 4%
tracer uptake (total binding) in AR42J cells compared with the other cell lines ([4]; 0.025 nmol DFO-TOC, 1 µCi per well, 1 million cells per well, 1 h to 6 days, gamma counter, P < 0.0001 vs PC-3 and p = 0.0001 vs PANC-1 after 1 h): highest uptake; also recorded: higher uptake than PC-3 and PANC-1 cell lines at all time points
time at which AR42J cell binding reached saturation ([4]; 0.025 nmol DFO-TOC, 1 µCi per well, time points 1 h to 6 days): 5 days
blocking versus total binding groups, AR42J ([4]; 2.5 nmol unlabeled DFO-TOC (100x excess) as blocking agent, after 1 h, p < 0.0001, paired nonparametric t-test): statistically significant difference
blocking versus total binding groups, PC-3 [5]: statistically significant difference
tracer uptake in PANC-1 cells ([6]; 0.025 nmol DFO-TOC, 1 µCi per well, attributed to low SSTR2 expression): Low
blocking versus total binding groups, PANC-1 ([6]; 2.5 nmol unlabeled DFO-TOC (100x excess) as blocking agent, all time points, paired nonparametric t-test): No statistically significant difference
time of maximum cell internalization, AR42J [7]: 3 h
time of maximum cell internalization, PC-3 ([8]; 0.025 nmol DFO-TOC, 1 µCi per well, time points 30 min, 1 h, 3 h, trypsin and sodium citrate pH 2 strip): 3 h
percentage of tracer internalized in PC-3 compared with AR42J and PANC-1 ([8]; time points up to 3 h): higher percentage of the tracer was internalized
time of maximum cell internalization, PANC-1 [9]: 3 h
radiochemical yield in mouse serum after 9 days, radio-HPLC [10]: 89 ± 2%

[Tyr3, Thr8]-octreotide
earliest time at which SSTR2 internalization was observed [11]: 2.5 min
